Reference: the RepoRT retention time repository (doi:10.1021/acs.analchem.2c02893)

test: RP, Thermo Scientific Acclaim RSLC 120 C18, 100 × 2.1 mm, 2.2 µm, 30 °C, 0.2 mL/min, estimated dead time 1.1 min; A: 90% water + 10% methanol + 0.01% formic acid + 5 mM ammonium formate, pH 3.61; B: methanol + 0.01% formic acid + 5 mM ammonium formate, pH 3.61; gradient (min/%B) 0/1 1/1 2/39 13/99.9 15/99.9 15.1/1 20.1/1; conditions: stereoisomer not certain

SMILES | LC retention time
C#CCOC(=O)C(C)Oc1ccc(Oc2ncc(Cl)cc2F)cc1 (centres undefined) [Clodinafop-propargyl] | 10.7 min
CCCC1CC(C(=O)NC(C(C)O)C2OC(SC)C(O)C(O)C2O)N(C)C1 (centres undefined) [Lincomycin] | 4.08 min
CC1=C(CC(=O)O)c2cc(F)ccc2C1=Cc1ccc(S(C)=O)cc1 (centres undefined) [Sulindac] | 8.24 min
Cc1nc(NS(=O)(=O)c2ccc(N)cc2)oc1C [Sulfamoxole] | 4.11 min
NC(=O)C1(N2CCCCC2)CCN(CCCC(=O)c2ccc(F)cc2)CC1 [Pipamperone] | 6.11 min
CCCNC(C)Cc1ccccc1 (centres undefined) [Amphetamine-N-Propyl] | 4.83 min
O=C1CN=C(C2=CCCCC2)c2cc(Cl)ccc2N1 [Tetrazepam-Nor] | 10.1 min
CN1CCN(c2c(F)cc3c(=O)c(C(=O)O)cn4c3c2OCN4C)CC1 [Marbofloxacin] | 4.18 min
CCNc1nc(NCC)nc(SC)n1 [Simetryn] | 8.14 min
O=C(O)C(c1ccccc1Cl)N1CCc2sccc2C1 (centres undefined) [Clopidogrel Carbon acid] | 5.56 min
CCN(C(C)=O)c1cccc(-c2ccnc3c(C#N)cnn23)c1 [Zaleplon] | 6.61 min
CC(CN1c2ccccc2Sc2cccnc21)N(C)C (centres undefined) [Isothipendyl] | 6.47 min
CC(C)(c1ccc(OCC(O)CO)cc1)c1ccc(OCC2CO2)cc1 (centres undefined) [Bisphenol<U+00A0>A (2,3-dihydroxypropyl) glycidyl ether] | 9.52 min
CCCCCn1c2ccccc2c2cc(C(=O)c3cccc4ccccc34)ccc21 [EG-018] | 14.2 min
NC1Cc2ccc(I)cc2C1 (centres undefined) [5-Iodo-2-aminoindane (5-IAI)] | 5.87 min
COc1ccc2[nH]cc(CCN(C)C)c2c1 [MeO-DMT (5-)] | 3.98 min
O=C1OCC(O)=C1Cc1ccccc1 [Benzyltetronic acid (2-)] | 5.06 min
CN1C2CCC1CC(OC(=O)C(O)c1ccccc1)C2 (centres undefined) [Homatropine] | 3.73 min
Cc1cccc2sc3nncn3c12 [Tricyclazole] | 5.93 min
C=C(c1ccc(C(=O)O)cc1)c1cc2c(cc1C)C(C)(C)CCC2(C)C [Bexarotene] | 14.1 min
CNC(=O)Oc1cccc2c1OC(C)(C)C2 [Carbofuran] | 7.01 min
COC(C)C(O)(C(=O)OCC1=CC[N+]2([O-])CCC(O)C12)C(C)C (centres undefined) [Heliotrine-N-oxide] | 3.49 min

SMILES | LC retention time
CCCCn1cc(C(=O)c2cccc3ccccc23)c2ccccc21 [JWH-073] | 11.9 min
CN(C)CCCC1(c2ccc(F)cc2)OCc2cc(C(=O)O)ccc21 (centres undefined) [Citalopram carboxylic acid] | 5.83 min
CC=CCC1=C(C)C(OC(=O)C2C(C=C(C)C(=O)OC)C2(C)C)CC1=O (centres undefined) [Pyrethrins: Cinerin II] | 11.6 min
N#Cc1nn(-c2c(Cl)cc(C(F)(F)F)cc2Cl)c(N)c1S(=O)C(F)(F)F (centres undefined) [Fipronil] | 10.5 min
CCCN(CCOc1c(Cl)cc(Cl)cc1Cl)C(=O)NC=O | 11.2 min
CC(C)C(O)(c1ccc(OC(F)(F)F)cc1)c1cncnc1 (centres undefined) [Flurprimidol] | 9.62 min
CCC(C)C1OC2(C=CC1C)CC1CC(CC=C(C)C(OC3CC(OC)C(OC4CC(OC)C(NC)C(C)O4)C(C)O3)C(C)C=CC=C3COC4C(O)C(C)=CC(C(=O)O1)C34O)O2 (centres undefined) [Emamectin B1a] | 12.4 min
OCCN1CCN(CCCN2c3ccccc3C=Cc3ccccc32)CC1 [Opipramol] | 7.83 min
CC(CC(=O)Nc1ccc(Cl)cc1Cl)N1CCCCC1 (centres undefined) [Clibucaine] | 6.27 min
CC1COC(=O)c2cc3c(cc21)C(C)(C)C(C)C3(C)C (centres undefined) [Galaxolidone] | 12 min
Cc1cc(Cl)ccc1N=CN(C)C [Chlordimeform] | 4.64 min
CC1CCCCC1NC(=O)Nc1ccccc1 (centres undefined) [Siduron] | 9.37 min
CC=C1CC(C)C(C)(O)C(=O)OCC2=CCN(C)CCC(OC1=O)C2=O (centres undefined) [Senkirkine] | 5.16 min
CNCC(O)c1ccc(O)cc1 (centres undefined) [Synephrine] | 1.6 min
CNC(=O)N(C)c1nc2ccccc2s1 [Methabenzthiazuron] | 8.26 min
CCOP(=S)(OCC)SCSC(C)(C)C [Terbufos] | 12.2 min
Cc1ncc([N+](=O)[O-])n1CCCO [Ternidazole] | 4.21 min
CC(=O)c1ccc(S(=O)(=O)NC(=O)NC2CCCCC2)cc1 [Acetohexamide] | 7.72 min
CC1=C(C(=O)Nc2ccccc2)SCCO1 [Carboxin] | 7.46 min
CCOP(=S)(OCC)SCSP(=S)(OCC)OCC [Ethion] | 12.4 min
Nc1c(Cl)c(Cl)nc(C(=O)O)c1Cl [Picloram] | 3.56 min
COc1ccc2[nH]cc(CC(C)N)c2c1 (centres undefined) [MeO-AMT (5-)] | 4.36 min

SMILES | LC retention time
CCC(C)Nc1c([N+](=O)[O-])cc(C(C)(C)C)cc1[N+](=O)[O-] (centres undefined) [Butralin] | 13 min
CCCCOC(=O)c1ccc(O)cc1 [Butylparaben] | 9.46 min
O=C(Nc1ccccc1)Nc1cnns1 [Thidiazuron] | 7.17 min
COc1cccc2c(C(=O)NC3C4(C)CCC(C4)C3(C)C)cn(CCN3CCOCC3)c12 (centres undefined) [MN-25] | 11.7 min
CC(CN(C)C)CN1c2ccccc2CCc2ccccc21 (centres undefined) [Trimipramine] | 8.31 min
Cc1ccc(NC(=O)c2ccc(CN3CCN(C)CC3)cc2)cc1Nc1nccc(-c2cccnc2)n1 [Imatinib] | 6.6 min
CCCc1nn(C)c2c(=S)nc(-c3cc(S(=O)(=O)N4CC(C)NC(C)C4)ccc3OCC)[nH]c12 (centres undefined) [Sildenafil Thiodimethyl] | 9.91 min
Cc1ccc(S(=O)(=O)NC(=O)NN2CCCCCC2)cc1 [Tolazamide] | 8.09 min
CC1C(=O)OC2CCN3CC=C(COC(=O)C(C)(O)C1(C)O)C23 (centres undefined) [Monocrotaline] | 2.92 min
CC(C)(C)NCC(O)c1cc(Cl)c(N)c(C(F)(F)F)c1 (centres undefined) [Mabuterol] | 5.28 min
CC(C)(C)c1ccc(CSc2cnn(C(C)(C)C)c(=O)c2Cl)cc1 [Pyridaben] | 13.4 min
CCN(CC)C(C)C(=O)c1ccccc1 (centres undefined) [Amfepramone] | 4.11 min
Nc1ccc(S(=O)(=O)Nc2nccs2)cc1 [Sulfathiazole] | 3.63 min
CCCCN(CCCC)SN(C)C(=O)Oc1cccc2c1OC(C)(C)C2 [Carbosulfan] | 13.8 min
CN(C)CCN(Cc1ccc(Cl)cc1)c1ccccn1 [Chloropyramine] | 7.09 min
COC1=CC(=O)CC(C)C12Oc1c(Cl)c(OC)cc(OC)c1C2=O (centres undefined) [Griseofulvin] | 8.05 min
Cc1nnc2n1-c1ccc(Cl)cc1C(c1ccccc1Cl)=NC2 [Triazolam] | 8.05 min
Cc1ccnc(NS(=O)(=O)c2ccc(N)cc2)n1 [Sulfamerazine] | 3.95 min
O=C1CN=C(c2ccccc2)c2cc([N+](=O)[O-])ccc2N1 [Nitrazepam] | 7.79 min
O=C(c1cccc2ccccc12)c1nc2ccccc2n1CCCCCF [FUBIMINA] | 11.6 min
